Numbered stars: 1 amine (or outer) side, 2 acyl side, 3 side chain; on linkers, the order of the positions; unused ones are H or OH. Bridge positions count the residues as written; N and C are the ends. Square brackets hold non-standard residues; d marks the D form. Peptide text beside a SMILES is read from it. * marks the point of attachment. X5 = O=C([C@@H]1C[C@@H](OP(=O)(O)O)CN1[*:1])[*:2]; Piperazine(2S-CO,4-Me) = CN1CCN[C@H](C(=O)O)C1; Phe(3-Cl) = N[C@@H](Cc1cccc(Cl)c1)C(=O)O; Morpholine(3S-CO) = O=C(O)[C@@H]1COCCN1; Phe(3-Me) = Cc1cccc(C[C@H](N)C(=O)O)c1; NH(4-Cl-2-F-phenyl) = Fc1cc(Cl)ccc1N*; Pro(4R-Me) = C[C@H]1CN[C@H](C(=O)O)C1; Hyp = O=C(O)[C@@H]1C[C@@H](O)CN1; NH(4-Me-phenyl) = Cc1ccc(N*)cc1; aThr = C[C@H](O)[C@H](N)C(=O)O; Pip = O=C(O)[C@@H]1CCCCN1; X3 = c1cc2c(cc1N*)OCCO2; CO = O=C([*:1])[*:2] A value given as a limit tells only on which side of the number the result lay.

Series [1] in a line: Microsomal metabolic stability. It counts as in vitro ADME, mouse. The essentials: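 CD-1 mouse liver microsomes (0.6381 mg/mL protein microsomal solution, 0.1 M potassium phosphate pH 7.4 with EDTA) were incubated with compound and an NADPH-regenerating system at 37 °C, in triplicate. Acetonitrile/warfarin quench at 0, 15, 30, 60, 120 and 240 min, then LCMS. Half-life came from a first-order least-squares fit.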

Series [2] has as its target T1, Sa-ClpP (Staphylococcus aureus, UniProt Q2G036).
T1 construct: made in house; host or cells: E. coli BL21 (DE3)
The series can be described thus: ADEP displacement fluorescence polarization assay. It counts as binding, S. aureus. To be noted: displacement of FP probe ADEP 2591 from Sa-ClpP. The essentials:
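Master mix of 15 μM Sa-ClpP and 50 nM TAMRA-labelled ADEP 2591 probe in Tris-HCl pH 8.0, 2% DMSO, was pre-equilibrated 1 h at RT, then compounds were added and incubated 120 min at RT. Polarization (ex 530, em 579 nm, mP) was normalised to 200 μM ADEP 2378 and DMSO controls and fitted by four-parameter regression, in triplicate.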

The nature of series [3]: Microsomal metabolic stability. It counts as in vitro ADME, human.
Where [4] appears, read: microsomal metabolic stability half-life, mouse liver microsomes.
Setting [5] is: microsomal metabolic stability half-life, human liver microsomes.

T1 sequence (Q2G036 whole entry): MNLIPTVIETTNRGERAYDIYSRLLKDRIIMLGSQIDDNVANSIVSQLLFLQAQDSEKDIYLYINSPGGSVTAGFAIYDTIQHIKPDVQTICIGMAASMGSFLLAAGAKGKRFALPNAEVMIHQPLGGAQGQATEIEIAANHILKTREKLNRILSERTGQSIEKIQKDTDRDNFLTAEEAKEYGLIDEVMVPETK

The IC50 is the concentration at which inhibition is half-maximal. Read a low IC50 as greater potency. Consider `Cc1cccc(C[C@H](NC(=O)Nc2ccc3c(c2)OCCO3)C(=O)N[C@@H]2C(=O)N3C[C@H](O)C[C@H]3C(=O)N3CCOC[C@H]3C(=O)N[C@@H](C)C(=O)N3C[C@H](C)C[C@H]3C(=O)O[C@H]2C)c1` [Compound 27, (S)-2-(3-(2,3-DIHYDROBENZO[B][1,4]DIOXIN-6-YL)UREIDO)-N-((6AS,8R,12S,13S,15AS,17R,21S,23AS)-8-HYDROXY-13,17,21-TRIMETHYL-6,11,15,20,23-PENTAOXOOCTADECAHYDRO-6H,11H,15H-[1,4]OXAZINO[3,4-I]DIPYRROLO[2,1-C:2′,1′-L][1]OXA[4,7,10,13]TETRAAZACYCLOHEXADECIN-12-YL)-3-(M-TOLYL)PROPANAMIDE] ({X3-CO}-[Phe(3-Me)][aThr][Hyp][Morpholine(3S-CO)]A[Pro(4R-Me)]; ester 2-C), for which, in series [1] (CD-1, mouse, pH 7.4), the “Mouse” value was 0.79 ± .795 h. Moreover, the IC50 in series [2] turned out to be 5.13 ± 0.16 µM. Besides, the “Human” value in series [3] (human, pH 7.4) was 0.49 ± .495 h.

On to `Cc1cccc(C[C@H](NC(=O)Nc2ccc3c(c2)OCCO3)C(=O)N[C@@H]2C(=O)N3C[C@H](O)C[C@H]3C(=O)N3CCCC[C@H]3C(=O)N[C@@H](C)C(=O)N3C[C@H](C)C[C@H]3C(=O)O[C@H]2C)c1` [Compound 28, (S)-2-(3-(2,3-DIHYDROBENZO[B][1,4]DIOXIN-6-YL)UREIDO)-N-((2R,6S,8AS,14AS,16R,20S,21S,23AS)-16-HYDROXY-2,6,21-TRIMETHYL-5,8,14,19,23-PENTAOXOOCTADECAHYDRO-1H,5H,14H,19H-PYRIDO[2,1-I]DIPYRROLO[2,1-C:2′,1′-L][1]OXA[4,7,10,13]TETRAAZACYCLOHEXADECIN-20-YL)-3-(M-TOLYL)PROPANAMIDE] ({X3-CO}-[Phe(3-Me)][aThr][Hyp][Pip]A[Pro(4R-Me)]; ester 2-C), for which the “Mouse” value in series [1] (CD-1, mouse, pH 7.4) is 0.79 ± .795 h. This compound showed an IC50 in series [2] of 4.86 ± 0.17 µM. The “Human” value in series [3] (human, pH 7.4) was 0.18 ± .185 h.

Take `Cc1cccc(C[C@H](NC(=O)Nc2ccc(Cl)cc2F)C(=O)N[C@@H]2C(=O)N3C[C@H](OP(=O)(O)O)C[C@H]3C(=O)N3CCCC[C@H]3C(=O)N[C@@H](C)C(=O)N3C[C@H](C)C[C@H]3C(=O)O[C@H]2C)c1` [Compound 29, (2R,6S,8AS,14AS,16R,20S,21S,23AS)-20-((S)-2-(3-(4-CHLORO-2-FLUOROPHENYL)UREIDO)-3-(M-TOLYL)PROPANAMIDO)-2,6,21-TRIMETHYL-5,8,14,19,23-PENTAOXOOCTADECAHYDRO-1H,5H,14H,19H-PYRIDO[2,1-I]DIPYRROLO[2,1-C:2′,1′-L][1]OXA[4,7,10,13]TETRAAZACYCLOHEXADECIN-16-YL DIHYDROGEN PHOSPHATE] ({NH(4-Cl-2-F-phenyl)-CO}-[Phe(3-Me)][aThr][X5][Pip]A[Pro(4R-Me)]; ester 2-C): the “Mouse” value in series [1] (setting [4]) is over 4 h. The same compound returned an IC50 in series [2] of 4.45 ± 0.45 µM. Besides, in series [3] (setting [5]), the “Human” value is over 4 h.

Take `Cc1ccc(NC(=O)N[C@@H](Cc2cccc(C)c2)C(=O)N[C@@H]2C(=O)N3C[C@H](O)C[C@H]3C(=O)N3CCN(C)C[C@H]3C(=O)N[C@@H](C)C(=O)N3C[C@H](C)C[C@H]3C(=O)O[C@H]2C)cc1` [Compound 30, (S)—N-((6AS,8R,12S,13S,15AS,17R,21S,23AS)-8-HYDROXY-2,13,17,21-TETRAMETHYL-6,11,15,20,23-PENTAOXOOCTADECAHYDRO-2H,6H,11H,15H-PYRAZINO[2,1-I]DIPYRROLO[2,1-C:2′,1′-L][1]OXA[4,7,10,13]TETRAAZACYCLOHEXADECIN-12-YL)-3-(M-TOLYL)-2-(3-(P-TOLYL)UREIDO)PROPANAMIDE] ({NH(4-Me-phenyl)-CO}-[Phe(3-Me)][aThr][Hyp][Piperazine(2S-CO,4-Me)]A[Pro(4R-Me)]; ester 2-C): in series [1] (setting [4]), the “Mouse” value is 6.21 ± .215 h. Further, in series [2], the IC50 came out at 3.41 ± 0.41 µM. For the same compound, the “Human” value in series [3] (setting [5]) is 1.30 ± .305 h.

On to `Cc1cccc(C[C@H](NC(=O)Nc2ccc(Cl)cc2F)C(=O)N[C@@H]2C(=O)N3C[C@H](O)C[C@H]3C(=O)N3CCN(C)C[C@H]3C(=O)N[C@@H](C)C(=O)N3C[C@H](C)C[C@H]3C(=O)O[C@H]2C)c1` [Compound 31, (S)-2-(3-(4-CHLORO-2-FLUOROPHENYL)UREIDO)-N-((6AS,8R,12S,13S,15AS,17R,21S,23AS)-8-HYDROXY-2,13,17,21-TETRAMETHYL-6,11,15,20,23-PENTAOXOOCTADECAHYDRO-2H,6H,11H,15H-PYRAZINO[2,1-I]DIPYRROLO[2,1-C:2′,1′-L][1]OXA[4,7,10,13]TETRAAZACYCLOHEXADECIN-12-YL)-3-(M-TOLYL)PROPANAMIDE] ({NH(4-Cl-2-F-phenyl)-CO}-[Phe(3-Me)][aThr][Hyp][Piperazine(2S-CO,4-Me)]A[Pro(4R-Me)]; ester 2-C), for which the “Mouse” value in series [1] (CD-1, mouse, pH 7.4) is 2.65 ± .655 h. Moreover, the IC50 in series [2] was determined as 3.07 ± 0.07 µM. For the same compound, the “Human” value in series [3] (human, pH 7.4) is 3.87 ± .875 h.

As to `C[C@@H]1C[C@H]2C(=O)O[C@@H](C)[C@H](NC(=O)[C@H](Cc3cccc(Cl)c3)NC(=O)Nc3ccc(Cl)cc3F)C(=O)N3CCC[C@H]3C(=O)N3CCN(C)C[C@H]3C(=O)N[C@@H](C)C(=O)N2C1` [Compound 33] ({NH(4-Cl-2-F-phenyl)-CO}-[Phe(3-Cl)][aThr]P[Piperazine(2S-CO,4-Me)]A[Pro(4R-Me)]; ester 2-C), the “Mouse” value in series [1] (CD-1, mouse, pH 7.4) was 0.80 ± .805 h. In series [2], the IC50 stood at 3.16 ± 0.16 µM. Besides, the “Human” value in series [3] (human, pH 7.4) was 9.25 ± .255 h.

These data come from US10570179B2, “Substituted urea depsipeptide analogs as activators of the CLPP endopeptidase” (priority 2016, dated 2020).
